{"source": "patent EP4592291A1", "about": "“USE OF PEMETREXED NEAR-INFRARED FLUORESCENT MOLECULE TARGETING ALPHA-TYPE FOLATE RECEPTOR AS FLUORESCENT TRACER” (Nanjing Nuoyuan Medical Devices Co., Ltd, priority 2022, dated 2024)", "key": {"[1]": {"tested_on": "A549 tumor-bearing mice with low folate receptor α expression", "assay": "In vivo near-infrared imaging of tumor-bearing mice, low folate receptor α expression", "conditions": "tail vein injection, dose of 10 nm, after 2 h", "protocol": "(§1) (2) The pemetrexed near-infrared fluorescent molecule was used for specifically recognizing non-small lung cancer tissues with high folate receptor α expression: the pemetrexed near-infrared fluorescent tracer was administrated to H1299 and A549 tumor-bearing mice via tail vein injection at a dose of 10 nm. After 2 h, imaging effects were observed through an animal imaging instrument and tissue biological distribution of mice was analyzed."}, "[2]": {"tested_on": "inflammatory tissue slice with high folate receptor β expression", "assay": "Fluorescence of inflammatory tissue slices, H1299 tumor plus peritonitis mouse model", "type": "in vivo", "conditions": "H1299 tumor-bearing mouse with peritonitis, FIG. 7", "from_the_text": "(§2) The establishment of the inflammation model was verified by utilizing immunohistochemistry slices. […] By utilizing different specificities to different folate receptor subtypes, the tumors are effectively differentiated from the inflammatory tissues."}, "[3]": {"tested_on": "non-small cell lung cancer slice with high folate receptor α expression", "assay": "Fluorescence of tumor slices, H1299 tumor plus peritonitis mouse model", "type": "in vivo", "conditions": "H1299 tumor-bearing mouse with peritonitis, FIG. 6", "from_the_text": "as §2"}, "[4]": {"tested_on": "H1299 tumor-bearing mice with high folate receptor α expression", "assay": "In vivo near-infrared imaging of tumor-bearing mice, high folate receptor α expression", "conditions": "tail vein injection, dose of 10 nm, after 2 h", "protocol": "as §1"}, "[5]": {"tested_on": "cell line RAW264.7 with high folate receptor β expression", "assay": "Confocal cell imaging of tracer uptake, cell line with high folate receptor β expression", "type": "cell-based", "conditions": "RAW264.7, 100 nM tracer, incubated 1 h", "protocol": "(§3) 4. In order to verify the effect of the present disclosure, the following verification experiment was conducted: • (1) Use of a pemetrexed near-infrared fluorescent molecule in the aspect of differentiating a tumor with high folate receptor α expression from inflammation, that is, specific recognition of the pemetrexed near-infrared fluorescent molecule on a cell line with high folate receptor α expression: a cell line H1299 with high folate receptor α expression, a cell line A549 with low folate receptor α expression and a cell line RAW264.7 with high folate receptor β expression were selected. The cells were cultured in a Roswell Park Memorial Institute (RPPMI) culture medium containing 10% fetal bovine serum (FBS) and 1% […] in moist air containing 5% CO2 and 95% air at 37°C. The cells were incubated for 1 h in a confocal vessel by utilizing a 100 nM pemetrexed near-infrared fluorescent tracer. The cells after incubation were washed with PBS, stained with DPAI, fixed with paraformaldehyde and then photographed."}, "[6]": {"tested_on": "cell line A549 with low folate receptor α expression", "assay": "Confocal cell imaging of tracer uptake, cell line with low folate receptor α expression", "type": "cell-based", "conditions": "folate receptor α negative A549 cell, 100 nM tracer, incubated 1 h", "protocol": "as §3"}, "[7]": {"tested_on": "cell line H1299 with high folate receptor α expression", "assay": "Confocal cell imaging of tracer uptake, cell line with high folate receptor α expression", "type": "cell-based", "conditions": "100 nM tracer, incubated 1 h", "protocol": "as §3"}}}
{"smiles": "CC1(C)C(=CC=C2CCCC(C=CC3=[N+](CCCCS(=O)(=O)[O-])c4ccc(S(=O)(=O)O)cc4C3(C)C)=C2Oc2ccc(C[C@H](NC(=O)c3ccc(CCc4c[nH]c5[nH]c(N)nc(=O)c45)cc3)C(=O)O)cc2)N(CCCCS(=O)(=O)O)c2ccc(S(=O)(=O)O)cc21", "values": [{"measurement": "targeting effect (imaging)", "setting": "[1]", "result": "not detected"}, {"measurement": "fluorescence of tissue slice", "setting": "[2]", "result": "almost has no fluorescence"}, {"measurement": "fluorescence intensity of tissue slice", "setting": "[3]", "result": "relatively high intensity"}, {"measurement": "specific recognition of tumor (imaging effect)", "setting": "[4]", "result": "capable of specifically recognizing"}, {"measurement": "tumor background-to-signal ratio", "setting": "[4]", "result": "good"}, {"measurement": "fluorescence in the cell", "setting": "[5]", "result": "not detected"}, {"measurement": "tracer fluorescence in the cell (internalization)", "setting": "[6]", "result": "not observed"}, {"measurement": "tracer fluorescence in the cell (internalization)", "setting": "[7]", "result": "seen in the entire cytoplasm"}]}
